Patent EP4813991A1 (iLeadBMS Co., Ltd., priority 2023, dated 2025)

Columns and labels:
HCC70 cells = assay: Breast cancer cell proliferation inhibitory activity, HCC70; type: cell-based; conditions: Homo sapiens, 72 hours, CellTiter Glo, relative IC50
Procedure: (§1) Experiments were conducted using three types of breast cancer cell lines to measure the cell proliferation inhibitory ability of each Example compound. For HCC70 cells, 100 µL of cell suspension was dispensed into a 96-well plate using RPMI1640 (Invitrogen) medium containing 10 % FBS, followed by incubation in a cell incubator at 37 °C and 5 % CO2. For BT-20 cells, 100 µL of cell suspension was dispensed into a 96-well plate using EMEM (Invitrogen) medium containing 10 % FBS, followed by incubation in a cell incubator at 37 °C and 5 % CO2. For MDA-MB-436 cells, 100 µL of cell suspension was dispensed into a 96-well plate using L-15 (Invitrogen) medium containing 10 % FBS, followed by incubation in a cell incubator at 37 °C and 0 % CO2. The next day, each Example compound dissolved and diluted in DMSO across 9 concentration ranges and a DMSO control group were treated on the cells for 72 hours. After completion of the compound treatment, 100 µL of CellTiter Glo (Promega) reagent was added to each well of the 96-wellplate, followed by shaking for 10 minutes and standing at room temperature for 10 minutes. After inserting the 96-well plate into an Envision plate reader (PerkinElmer), luminescence signals were measured. Relative IC50 values were calculated by fitting a dose-response curve using XL fit (IDBS Ltd) software.
(§2) The breast cancer cell proliferation inhibitory activities of the Example compounds measured by the method described above were evaluated according to the following criteria, and the results are presented in Table 15.

BT-20 cells = assay: Breast cancer cell proliferation inhibitory activity, BT-20; type: cell-based; conditions: Homo sapiens, 72 hours, CellTiter Glo, relative IC50
Procedure: as §1, §2

CDK13 = CDK13 (Homo sapiens, UniProt Q14004); assay: CDK13 kinase inhibitory activity assay (33P-ATP filter binding); type: biochemical; conditions: kinase reaction 120 minutes, 33P-gamma-ATP; read-out: CDK13 IC50
Sequence of CDK13 (Q14004 whole entry, species assumed): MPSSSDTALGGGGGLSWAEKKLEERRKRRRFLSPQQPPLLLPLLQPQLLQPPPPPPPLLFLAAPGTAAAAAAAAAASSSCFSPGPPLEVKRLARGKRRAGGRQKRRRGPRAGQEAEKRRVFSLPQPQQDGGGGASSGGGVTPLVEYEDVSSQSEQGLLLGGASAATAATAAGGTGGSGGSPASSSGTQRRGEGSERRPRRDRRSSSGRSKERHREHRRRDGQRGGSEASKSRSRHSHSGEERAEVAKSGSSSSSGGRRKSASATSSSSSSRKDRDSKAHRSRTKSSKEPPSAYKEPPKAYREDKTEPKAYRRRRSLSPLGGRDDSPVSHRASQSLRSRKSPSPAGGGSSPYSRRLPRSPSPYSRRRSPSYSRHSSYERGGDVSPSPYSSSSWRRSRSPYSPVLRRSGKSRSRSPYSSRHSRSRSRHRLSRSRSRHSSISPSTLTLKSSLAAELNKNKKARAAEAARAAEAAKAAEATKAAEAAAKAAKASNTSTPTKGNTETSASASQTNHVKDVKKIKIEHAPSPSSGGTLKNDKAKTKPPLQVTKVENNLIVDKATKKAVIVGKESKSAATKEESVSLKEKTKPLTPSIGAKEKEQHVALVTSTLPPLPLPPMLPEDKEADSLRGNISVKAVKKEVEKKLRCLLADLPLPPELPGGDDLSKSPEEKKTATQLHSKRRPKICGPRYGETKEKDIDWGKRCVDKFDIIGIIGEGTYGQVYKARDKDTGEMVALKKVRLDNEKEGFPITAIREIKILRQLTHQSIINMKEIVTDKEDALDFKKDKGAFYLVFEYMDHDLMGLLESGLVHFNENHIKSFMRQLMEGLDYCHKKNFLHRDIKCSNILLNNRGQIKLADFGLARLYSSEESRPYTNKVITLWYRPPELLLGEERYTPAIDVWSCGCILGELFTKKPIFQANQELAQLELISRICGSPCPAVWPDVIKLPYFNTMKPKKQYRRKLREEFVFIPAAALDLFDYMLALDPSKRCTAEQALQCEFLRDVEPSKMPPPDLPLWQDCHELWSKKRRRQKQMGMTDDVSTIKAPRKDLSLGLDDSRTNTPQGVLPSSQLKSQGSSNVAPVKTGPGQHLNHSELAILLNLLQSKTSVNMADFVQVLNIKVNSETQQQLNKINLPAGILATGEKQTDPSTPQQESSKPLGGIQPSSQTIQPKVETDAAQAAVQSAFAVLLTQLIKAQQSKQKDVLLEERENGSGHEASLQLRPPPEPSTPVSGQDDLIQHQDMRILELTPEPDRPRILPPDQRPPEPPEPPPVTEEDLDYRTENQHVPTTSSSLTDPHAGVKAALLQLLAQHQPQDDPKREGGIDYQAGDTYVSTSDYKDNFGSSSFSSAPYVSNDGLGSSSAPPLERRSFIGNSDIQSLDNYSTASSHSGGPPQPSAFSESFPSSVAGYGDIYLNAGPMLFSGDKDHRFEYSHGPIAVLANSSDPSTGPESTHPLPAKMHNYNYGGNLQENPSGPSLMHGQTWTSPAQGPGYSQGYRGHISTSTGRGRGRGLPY
Sequence of CDK13 (O75909 whole entry partner, species assumed): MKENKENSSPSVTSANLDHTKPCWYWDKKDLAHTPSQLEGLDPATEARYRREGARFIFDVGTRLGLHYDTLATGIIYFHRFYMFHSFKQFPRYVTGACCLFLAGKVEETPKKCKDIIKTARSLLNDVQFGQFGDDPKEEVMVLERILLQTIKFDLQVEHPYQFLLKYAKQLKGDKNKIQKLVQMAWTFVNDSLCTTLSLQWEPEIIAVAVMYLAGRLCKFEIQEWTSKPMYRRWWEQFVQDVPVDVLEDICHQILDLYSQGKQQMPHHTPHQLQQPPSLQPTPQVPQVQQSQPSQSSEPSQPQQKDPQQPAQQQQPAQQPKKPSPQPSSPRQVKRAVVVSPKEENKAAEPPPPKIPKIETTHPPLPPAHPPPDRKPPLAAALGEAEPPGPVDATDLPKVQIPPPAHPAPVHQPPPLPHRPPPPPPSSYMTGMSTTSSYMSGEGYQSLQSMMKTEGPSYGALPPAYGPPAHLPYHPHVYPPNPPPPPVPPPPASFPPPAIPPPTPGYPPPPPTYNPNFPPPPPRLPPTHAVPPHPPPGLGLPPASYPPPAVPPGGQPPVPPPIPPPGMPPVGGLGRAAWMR
Method in brief: (§3)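 Compound in 9 concentrations pre-incubated 20 min with kinase and substrate, then ^33P-γ-ATP added and reacted 120 min at room temperature. Phosphorylated substrate captured on filter, washed with 0.75 % phosphoric acid and counted; activity as % of DMSO control, IC50 fitted.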

[1] = test system: MDA-MB-231 breast cancer cells; assay: Proliferation inhibitory activity assay against MDA-MB-231 breast cancer cells; type: cell-based; conditions: Homo sapiens, 72 hours, CellTiter Glo, relative IC50
Method in brief: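 Cells grown in L-15 with 10% FBS at 37 °C, 0% CO2, then exposed next day to compounds at 9 concentrations (DMSO vehicle) for 72 h. Viability read by CellTiter Glo luminescence; relative IC50 from dose-response curve fit.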

MDA-MB-436 cells = assay: Breast cancer cell proliferation inhibitory activity, MDA-MB-436; type: cell-based; conditions: Homo sapiens, 72 hours, CellTiter Glo, relative IC50
Procedure: as §1, §2

AGS cells = assay: Gastric cancer cell proliferation inhibitory activity (CellTiter Glo), AGS; type: cell-based; conditions: 72 hours, relative IC50
Procedure: (§4) Experiments were performed using four types of gastric cancer cell lines (AGS, SNU-1, KATO-III, and MKN45) to measure the cell proliferation inhibitory ability of each Example compound. For AGS cells, 90 µL of cell suspension was dispensed into a 96-well plate using F-12K (Gibco) medium containing 10 % FBS, followed by incubation in a cell incubator at 37 °C and 5 % CO2. For SNU-1 and MKN45 cells, 90 µL of cell suspension was dispensed into a 96-well plate using RPMI1640 (Gibco) medium containing 10 % FBS, followed by incubation in a cell incubator at 37 °C and 5 % CO2. For KATO-III cells, 90 uL of cell suspension was dispensed into a 96-well plate using IMDM (Gibco) medium containing 10 % FBS, followed by incubation in a cell incubator at 37 °C and 5 % CO2. The next day, each Example compound dissolved and diluted in DMSO across 9 concentration ranges and a DMSO control group were added at 10 µL to each 96-well plate and treated for 72 hours. After completion of the compound treatment, 100 µL of CellTiter Glo (Promega) reagent was added to each well of the 96-well plate, followed by shaking for 10 minutes and standing at room temperature for 10 minutes. Luminescence signals were measured after inserting the 96-well plate into an Envision plate reader (PerkinElmer). Relative IC50 values were calculated by fitting a dose-response curve using XLfit (IDBS Ltd) software.
(§5) The gastric cancer cell proliferation inhibitory activities of the Example compounds measured by the method described above were evaluated according to the following criteria, and the results are presented in Table 16.

SNU-1 = assay: Gastric cancer cell proliferation inhibitory activity (CellTiter Glo), SNU-1; type: cell-based; conditions: 72 hours, relative IC50
Procedure: as §4, §5

KATO-III cells = assay: Gastric cancer cell proliferation inhibitory activity (CellTiter Glo), KATO-III; type: cell-based; conditions: 72 hours, relative IC50
Procedure: as §4, §5

MKN45 cells = assay: Gastric cancer cell proliferation inhibitory activity (CellTiter Glo), MKN45; type: cell-based; conditions: 72 hours, relative IC50
Procedure: as §4, §5

CDK12 [2] = molecular target: T1, CDK12 (Homo sapiens, UniProt Q9NYV4); assay: CDK12 kinase inhibitory activity assay (33P-ATP filter binding); type: biochemical; conditions: kinase reaction 120 minutes, 33P-gamma-ATP; read-out: CDK12 IC50
T1 sequence (Q9NYV4 whole entry, species assumed): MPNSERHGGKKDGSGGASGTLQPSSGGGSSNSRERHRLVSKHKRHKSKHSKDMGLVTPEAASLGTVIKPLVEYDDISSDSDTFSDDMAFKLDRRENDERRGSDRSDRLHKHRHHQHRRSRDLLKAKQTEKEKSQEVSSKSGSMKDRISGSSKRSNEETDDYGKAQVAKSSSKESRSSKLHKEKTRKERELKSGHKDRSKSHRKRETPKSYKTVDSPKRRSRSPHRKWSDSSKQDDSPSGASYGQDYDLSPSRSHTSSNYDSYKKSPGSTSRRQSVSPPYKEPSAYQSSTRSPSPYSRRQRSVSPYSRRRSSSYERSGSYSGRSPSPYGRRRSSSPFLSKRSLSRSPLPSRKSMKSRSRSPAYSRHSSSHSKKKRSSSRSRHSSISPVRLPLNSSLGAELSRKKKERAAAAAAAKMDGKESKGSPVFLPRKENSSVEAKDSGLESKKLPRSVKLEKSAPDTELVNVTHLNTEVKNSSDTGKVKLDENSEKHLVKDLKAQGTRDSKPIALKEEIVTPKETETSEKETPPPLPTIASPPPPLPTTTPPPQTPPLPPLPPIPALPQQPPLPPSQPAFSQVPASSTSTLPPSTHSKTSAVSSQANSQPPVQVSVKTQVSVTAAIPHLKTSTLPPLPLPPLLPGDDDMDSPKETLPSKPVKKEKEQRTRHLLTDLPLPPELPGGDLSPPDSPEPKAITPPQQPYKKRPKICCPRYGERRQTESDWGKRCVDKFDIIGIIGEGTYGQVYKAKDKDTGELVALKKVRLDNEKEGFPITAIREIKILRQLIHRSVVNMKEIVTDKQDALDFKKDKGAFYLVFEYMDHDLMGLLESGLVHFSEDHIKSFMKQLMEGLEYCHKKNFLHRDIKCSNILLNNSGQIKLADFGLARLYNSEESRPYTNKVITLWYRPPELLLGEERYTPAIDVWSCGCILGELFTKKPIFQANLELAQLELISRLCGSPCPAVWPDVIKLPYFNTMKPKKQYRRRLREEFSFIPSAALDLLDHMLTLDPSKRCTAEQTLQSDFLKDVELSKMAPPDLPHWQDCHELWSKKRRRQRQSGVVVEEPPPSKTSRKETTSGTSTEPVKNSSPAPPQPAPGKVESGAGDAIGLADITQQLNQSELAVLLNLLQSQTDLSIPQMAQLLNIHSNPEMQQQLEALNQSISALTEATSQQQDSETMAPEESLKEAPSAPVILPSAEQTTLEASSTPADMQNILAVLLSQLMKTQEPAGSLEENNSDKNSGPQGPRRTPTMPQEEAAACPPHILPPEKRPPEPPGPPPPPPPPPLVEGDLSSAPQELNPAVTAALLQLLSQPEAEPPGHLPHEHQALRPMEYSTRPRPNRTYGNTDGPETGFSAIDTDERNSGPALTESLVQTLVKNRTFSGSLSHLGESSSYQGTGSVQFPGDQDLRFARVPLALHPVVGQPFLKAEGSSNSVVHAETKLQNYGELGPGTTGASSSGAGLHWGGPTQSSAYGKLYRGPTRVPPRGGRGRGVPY
T1 sequence (O75909 whole entry partner, species assumed): as the sequence (O75909 whole entry partner, species assumed) above
Method in brief: as §3

CDK1 = CDK1 (Homo sapiens, UniProt P06493); assay: CDK1 kinase inhibitory activity assay and selectivity over CDK12; type: biochemical; conditions: for IC50: kinase reaction 120 minutes, 33P-gamma-ATP
Sequence of CDK1 (P06493 whole entry, species assumed): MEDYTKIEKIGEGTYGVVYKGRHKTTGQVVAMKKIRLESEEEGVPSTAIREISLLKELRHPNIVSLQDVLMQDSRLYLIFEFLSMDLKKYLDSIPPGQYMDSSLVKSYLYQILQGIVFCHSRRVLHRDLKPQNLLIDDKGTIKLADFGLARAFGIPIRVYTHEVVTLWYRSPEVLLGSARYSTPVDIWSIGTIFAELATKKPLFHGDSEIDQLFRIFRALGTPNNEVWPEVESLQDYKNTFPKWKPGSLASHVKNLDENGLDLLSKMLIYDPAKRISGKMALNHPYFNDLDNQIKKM
Sequence of CDK1 (P14635 whole entry partner, species assumed): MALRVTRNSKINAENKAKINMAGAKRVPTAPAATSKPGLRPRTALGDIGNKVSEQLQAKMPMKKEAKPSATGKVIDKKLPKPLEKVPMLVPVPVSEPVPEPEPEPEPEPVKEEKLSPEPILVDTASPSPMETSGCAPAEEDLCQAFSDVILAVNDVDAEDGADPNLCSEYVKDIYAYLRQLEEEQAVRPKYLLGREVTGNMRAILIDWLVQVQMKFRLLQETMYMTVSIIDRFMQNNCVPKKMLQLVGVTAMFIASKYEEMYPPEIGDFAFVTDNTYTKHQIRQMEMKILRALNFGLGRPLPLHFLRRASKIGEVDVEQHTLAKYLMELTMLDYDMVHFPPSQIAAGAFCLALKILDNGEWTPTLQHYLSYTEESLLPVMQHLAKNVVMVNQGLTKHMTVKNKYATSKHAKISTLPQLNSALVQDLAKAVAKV
Procedure: (§6) Before initiating the CDK1 and CDK2 kinase reactions, each Example compound was dissolved and diluted in DMSO as a solvent across 9 concentration ranges at room temperature. The diluted solutions were then incubated with a mixture of kinase and substrate (and cofactors, if required) for 20 minutes. Next, radioisotope-labeled ATP (^33P-gamma-ATP) was added to proceed with the kinase reaction at room temperature for 120 minutes. After the reaction was completed, the reaction mixture was transferred to a filter paper that binds the radioisotope-labeled catalytic product (^33P-substrate). Unreacted ^33P-ATP was removed by washing with 0.75 % phosphoric acid, and then the radioactive phosphorylated substrate remaining on the filter paper was measured. Kinase activity data were expressed as a percentage of the kinase activity remaining in the test sample compared to a DMSO control group. The half-maximal inhibitory concentration (IC50) for each kinase was calculated using Prism software.
(§7) The CDK1 and CDK2 kinase inhibitory activities of the Example compounds measured by the above method were evaluated according to the following criteria, and the results are presented in Table 14.

CDK2 = CDK2 (Homo sapiens, UniProt P24941); assay: CDK2 kinase inhibitory activity assay and selectivity over CDK12; type: biochemical; conditions: for IC50: kinase reaction 120 minutes, 33P-gamma-ATP
Procedure: as §6, §7

CDK12 [3] = molecular target: T1, CDK12; assay: Cellular CDK12 inhibitory activity assay (Ser2 phosphorylation of RNA polymerase II subunit B1 CTD in MDA-MB-231 cells); type: cell-based; design: using MDA-MB-231 breast cancer cells; endogenous in cells; host or cells: MDA-MB-231; conditions: MDA-MB-231 cells, 6 hours treatment; read-out: pRpbl CTD S2 IC50
Method in brief: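 MDA-MB-231 cells in L-15 with 10 % FBS were treated with compound at 9 concentrations for 6 h at 37 °C, 0 % CO2. In-Cell Western read phospho-Ser2 and total RNA polymerase II CTD on a Li-COR Odyssey; IC50 from 4-parameter dose-response fit.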

SMILES	IC50 (HCC70 cells) [nM]	IC50 (BT-20 cells) [nM]	IC50 (CDK13) [nM]	IC50 [1] [nM]	IC50 (MDA-MB-436 cells) [nM]	IC50 (CDK12 [2]) [nM]	IC50 (CDK1) [nM]	IC50 (CDK2) [nM]	IC50 (CDK12 [3]) [nM]	other results
CC(=O)c1c(C)c2cnc(Nc3ccc(N4CCNCC4)cn3)nc2n(C2CCCC2)c1=O [Palbociclib, reference compound]	> 1000	> 1000	–	–	–	–	–	–	–	–
Cn1cc(-n2cnc3c(NCc4nc5cc(Cl)c(Cl)cc5[nH]4)nc(N4CCOCC4)nc32)cn1 [SR-4835, reference compound]	50 to 1000	50 to 1000	100 to 500	50 to 500	50 to 1000	–	–	–	–	–
O=C(c1cc(Cc2n[nH]c(=O)c3ccccc23)ccc1F)N1CCN(C(=O)C2CC2)CC1 [Olaparib, reference compound]	> 1000	> 1000	–	–	> 1000	–	–	–	–	–
N.N.[Cl][Pt][Cl] [Cisplatin, reference compound]	–	–	–	–	–	–	–	–	–	IC50 (AGS cells): > 1000 nM; IC50 (SNU-1): > 1000 nM; IC50 (KATO-III cells): > 1000 nM; IC50 (MKN45 cells): > 1000 nM
N#CC1CCN(c2cc(NCc3nc4cc(Cl)c(Cl)cc4[nH]3)c3ncc(C(F)(F)F)n3n2)CC1 [Example 44, 1-(8-(((5,6-dichloro-1H-benzo[d]imidazol-2-yl)methyl)amino)-3-(trifluoromethyl)imidazo[1,2-b]pyridazin-6-yl)piperidine-4-carbonitrile]	–	–	100 to 500	≤ 50	–	100 to 500	> 1000	> 1000	< 300	–
Cc1ccnc2[nH]c(CNc3cc(N4CCOCC4)nn4c(C(F)(F)F)cnc34)nc12 [Example 75, N-((7-methyl-3H-imidazo[4,5-b]pyridin-2-yl)methyl)-6-morpholino-3-(trifluoromethyl)imidazo[1,2-b]pyridazin-8-amine]	–	–	< 100	50 to 500	–	< 100	> 1000	> 1000	< 300	CDK1/CDK12 (CDK1; ratio of CDK1 IC50 to CDK12 IC50): A (CDK1/CDK12 or CDK2/CDK12 > 500-fold); CDK2/CDK12 (CDK2; ratio of CDK2 IC50 to CDK12 IC50): A (CDK1/CDK12 or CDK2/CDK12 > 500-fold)
